According to patent US20140073639A1 (priority 2012, published 2014):

Experiments:
[1] = system: B. Anthracis; experiment: microbe, parasite or virus in culture; assay type: cell-based; conditions: for inhibition at 10 µM / inhibition at 30 µM / inhibition at 3 µM: Bacillus anthracis; for inhibition at 10 µM: read-out: B. Anthracis 10 μM (growth inhibition); for inhibition at 30 µM: read-out: B. Anthracis 30 μM (growth inhibition); for inhibition at 3 µM: read-out: B. Anthracis 3 μM (growth inhibition)
[2] = system: S. MRSA; experiment: microbe, parasite or virus in culture; assay type: cell-based; conditions: for inhibition at 10 µM / inhibition at 30 µM / inhibition at 3 µM: Staphylococcus aureus, MRSA; for inhibition at 10 µM: read-out: S. MRSA 10 μM (growth inhibition); for inhibition at 30 µM: read-out: S. MRSA 30 μM (growth inhibition); for inhibition at 3 µM: read-out: S. MRSA 3 μM (growth inhibition)

O=C1NC(=S)NC(=O)C1=Cc1ccc(Br)s1 [Cmpd 1]
inhibition at 10 µM [1]: -12.4% | inhibition at 30 µM [1]: 8.74% | inhibition at 10 µM [2]: 6.62% | inhibition at 30 µM [2]: 22.1%

O=C1NC(=S)S/C1=C/c1ccc(-c2ccc3c(c2)C(=O)NC3=O)o1 [Cmpd 3]
inhibition at 10 µM [1]: 13.7% | inhibition at 30 µM [1]: 87.5% | inhibition at 10 µM [2]: -0.59% | inhibition at 30 µM [2]: 61.2%

O=C(O)CCCCCN1C(=O)/C(=C2/C(=O)Nc3ccc(Br)cc32)SC1=S [Cmpd 4]
inhibition at 10 µM [1]: 52.3% | inhibition at 30 µM [1]: 91.2% | inhibition at 10 µM [2]: 41.6% | inhibition at 30 µM [2]: 69.4%

CC(C)C(C(=O)O)N1C(=O)/C(=C2/C(=O)Nc3ccccc32)SC1=S (centres unmarked) [Cmpd 5]
B. Anthracis 10 μM (growth inhibition) [1]: −1.33 | inhibition at 30 µM [1]: 11.2% | inhibition at 10 µM [2]: 15.9% | inhibition at 30 µM [2]: 40.6%

O=C1Nc2ccccc2/C1=C1/SC(=S)N(C(Cc2ccccc2)C(=O)O)C1=O (centres unmarked) [Cmpd 6]
inhibition at 10 µM [1]: 19.6% | inhibition at 30 µM [1]: 92.6% | inhibition at 10 µM [2]: 45.7% | inhibition at 30 µM [2]: 47.8%

COc1ccc(-c2nnc(-c3ccccc3)o2)cc1S(=O)(=O)Nc1cc2c(cc1C#N)OCO2 [Cmpd 7]
inhibition at 10 µM [1]: 19.6% | inhibition at 30 µM [1]: 74.9% | inhibition at 10 µM [2]: -7.79% | inhibition at 30 µM [2]: -1.62%

COc1ccc(-c2nc(N3CCOCC3)c3sc(=O)n(-c4ccccc4)c3n2)cc1OC [Cmpd 8]
inhibition at 10 µM [1]: 5.32% | inhibition at 30 µM [1]: 35.5% | inhibition at 10 µM [2]: -8.82% | inhibition at 30 µM [2]: 1.47%

O=C1NC(=S)NC(=O)C1=Cc1ccc(-c2ccc(Br)c(Cl)c2)o1 [Cmpd 9]
inhibition at 10 µM [1]: 28% | inhibition at 30 µM [1]: 88.4% | inhibition at 10 µM [2]: 19% | inhibition at 30 µM [2]: -4.22%

O=C1NC(=O)N(Cc2ccc(F)cc2)C(=O)/C1=C/c1ccc(Br)s1 [Cmpd 10]
inhibition at 10 µM [1]: 10.3% | inhibition at 30 µM [1]: 68.2% | inhibition at 10 µM [2]: 14.8% | inhibition at 30 µM [2]: 62.2%

COc1ccc(N2C(=O)/C(=C/c3ccc(Br)s3)C(=O)NC2=S)cc1 [Cmpd 11]
inhibition at 10 µM [1]: 16.2% | inhibition at 30 µM [1]: 47.3% | inhibition at 10 µM [2]: 14.8% | inhibition at 30 µM [2]: 42.6%

O=C1Nc2ccc(Br)cc2/C1=C1/SC(=S)N(C(Cc2ccccc2)C(=O)O)C1=O (centres unmarked) [Cmpd 13]
B. Anthracis 10 μM (growth inhibition) [1]: 10.27 | inhibition at 30 µM [1]: 90.1% | S. MRSA 10 μM (growth inhibition) [2]: −0.58 | S. MRSA 30 μM (growth inhibition) [2]: 30.29

O=C1NC(=S)NC(=O)C1=Cc1ccc(-c2cccc(Cl)c2)o1 [Cmpd 14]
inhibition at 10 µM [1]: 3.62% | inhibition at 30 µM [1]: 27.2% | inhibition at 10 µM [2]: 7.65% | inhibition at 30 µM [2]: 47.8%

O=C1NC(=S)NC(=O)C1=Cc1ccc(-c2ccc(Cl)cc2)o1 [Cmpd 15]
inhibition at 10 µM [1]: 3.62% | inhibition at 30 µM [1]: 42.2% | inhibition at 10 µM [2]: 20% | inhibition at 30 µM [2]: 63.2%

O=C1NC(=S)NC(=O)C1=Cc1ccc(Br)cc1 [Cmpd 16]
inhibition at 3 µM [1]: 0% | inhibition at 10 µM [1]: 0% | inhibition at 30 µM [1]: 0% | inhibition at 3 µM [2]: 13.6% | inhibition at 10 µM [2]: 12% | inhibition at 30 µM [2]: 8.76%

CC(C)C(C(=O)O)N1C(=O)/C(=C2/C(=O)Nc3ccccc32)SC1=S (centres unmarked) [Cmpd 17]
B. Anthracis 10 μM (growth inhibition) [1]: −2.28 | B. Anthracis 30 μM (growth inhibition) [1]: 7.03 | S. MRSA 10 μM (growth inhibition) [2]: 14.85 | S. MRSA 30 μM (growth inhibition) [2]: 46.76

O=C1NC(=O)C(=Cc2ccc(Br)s2)C(=O)N1 [Cmpd 18]
inhibition at 3 µM [1]: 0% | inhibition at 10 µM [1]: 0% | inhibition at 30 µM [1]: 0% | inhibition at 3 µM [2]: 13.6% | inhibition at 10 µM [2]: 15.2% | inhibition at 30 µM [2]: 18.4%

O=C1NC(=O)C(=Cc2ccc(Br)o2)C(=O)N1 [Cmpd 19]
inhibition at 3 µM [1]: 3.33% | inhibition at 10 µM [1]: 10.7% | inhibition at 30 µM [1]: 12.9% | inhibition at 3 µM [2]: -1.4% | inhibition at 10 µM [2]: 2% | inhibition at 30 µM [2]: 12.6%

O=C1NC(=S)NC(=O)C1=Cc1ccc(-c2ccc(F)cc2)o1 [Cmpd 20]
inhibition at 10 µM [1]: 17.1% | inhibition at 30 µM [1]: 28.7% | inhibition at 10 µM [2]: 25.1% | inhibition at 30 µM [2]: 56%

O=C(O)CC(C(=O)O)N1C(=O)/C(=C2/C(=O)Nc3ccc(Br)cc32)SC1=S (centres unmarked) [Cmpd 21]
inhibition at 3 µM [1]: 15.8% | inhibition at 10 µM [1]: 13.1% | inhibition at 30 µM [1]: 14.2% | inhibition at 3 µM [2]: -6.99% | inhibition at 10 µM [2]: -2.11% | inhibition at 30 µM [2]: -2.11%

O=C1Nc2ccc(Br)cc2/C1=C1/SC(=S)N(C(Cc2ccccc2)C(=O)O)C1=O (centres unmarked) [Cmpd 22]
B. Anthracis 10 μM (growth inhibition) [1]: 83.27 | B. Anthracis 30 μM (growth inhibition) [1]: 90.11 | S. MRSA 10 μM (growth inhibition) [2]: 10.74 | S. MRSA 30 μM (growth inhibition) [2]: 86.76

CN1C(=O)C(Cc2ccc(-c3ccc(Cl)c(Cl)c3)o2)C(=O)N(C)C1=O [Cmpd 23]
inhibition at 3 µM [1]: -8.49% | inhibition at 10 µM [1]: 1.54% | inhibition at 30 µM [1]: 10.7% | inhibition at 3 µM [2]: -8.09% | inhibition at 10 µM [2]: -7.35% | inhibition at 30 µM [2]: 0%

CCc1ccccc1N1C(=O)/C(=C/c2ccc(-c3cc(C(=O)O)ccc3Cl)o2)C(=O)NC1=S [Cmpd 24]
inhibition at 3 µM [1]: -10.8% | inhibition at 10 µM [1]: -4.63% | inhibition at 30 µM [1]: -10.8% | inhibition at 3 µM [2]: -2.94% | inhibition at 10 µM [2]: 2.2% | inhibition at 30 µM [2]: -5.88%

O=C1NC(=S)N(c2cccc(Cl)c2)C(=O)/C1=C/c1ccc(-c2cc(C(=O)O)ccc2Cl)o1 [Cmpd 25]
inhibition at 3 µM [1]: -10.8% | inhibition at 10 µM [1]: -3.09% | inhibition at 30 µM [1]: -3.09% | inhibition at 3 µM [2]: -2.21% | inhibition at 10 µM [2]: -4.41% | inhibition at 30 µM [2]: -5.15%

O=C1NC(=S)N(c2ccc(Cl)cc2)C(=O)/C1=C/c1ccc(-c2ccccc2C(=O)O)o1 [Cmpd 26]
inhibition at 3 µM [1]: 2.32% | inhibition at 10 µM [1]: 97% | inhibition at 30 µM [1]: 100% | inhibition at 3 µM [2]: 1.47% | inhibition at 10 µM [2]: 16.1% | inhibition at 30 µM [2]: 92.4%

CCOc1cccc(N2C(=O)/C(=C/c3ccc(-c4cc(C(=O)O)ccc4Cl)o3)C(=O)NC2=S)c1 [Cmpd 27]
inhibition at 3 µM [1]: -9.26% | inhibition at 10 µM [1]: 0% | inhibition at 30 µM [1]: -11.6% | inhibition at 3 µM [2]: 0.74% | inhibition at 10 µM [2]: 8.82% | inhibition at 30 µM [2]: -0.74%

O=C1NC(=S)NC(=O)C1=Cc1ccc(-c2cccc(C(=O)O)c2)o1 [Cmpd 28]
inhibition at 3 µM [1]: -9.26% | inhibition at 10 µM [1]: -3.09% | inhibition at 30 µM [1]: -13.1% | inhibition at 3 µM [2]: -0.74% | inhibition at 10 µM [2]: -2.21% | inhibition at 30 µM [2]: -3.68%

CN1C(=O)/C(=C/c2ccc(-c3ccc(Br)c(Cl)c3)o2)C(=O)NC1=S [Cmpd 29]
inhibition at 10 µM [1]: 80% | inhibition at 30 µM [1]: 90.1% | inhibition at 10 µM [2]: 52.9% | inhibition at 30 µM [2]: 86.8%

CCN1C(=O)NC(=O)/C(=C\c2ccc(-c3ccc(Cl)c(C(=O)O)c3)o2)C1=O [Cmpd 30]
inhibition at 3 µM [1]: -8.49% | inhibition at 10 µM [1]: 1% | inhibition at 30 µM [1]: -11.6% | inhibition at 3 µM [2]: 1.47% | inhibition at 10 µM [2]: -2.94% | inhibition at 30 µM [2]: -4.41%

COc1ccc(-c2ccc(/C=C3/NC(=S)N(C(Cc4ccccc4)C(=O)O)C3=O)s2)cc1 (centres unmarked) [Cmpd 33]
inhibition at 3 µM [1]: -3.85% | inhibition at 10 µM [1]: 0% | inhibition at 30 µM [1]: 100% | inhibition at 3 µM [2]: -2.94% | inhibition at 10 µM [2]: -13.2% | inhibition at 30 µM [2]: 18.5%

O=C(O)C(Cc1ccccc1)N1C(=O)/C(=C\c2ccc(-c3ccc(F)cc3)s2)NC1=S (centres unmarked) [Cmpd 34]
inhibition at 3 µM [1]: 0% | inhibition at 10 µM [1]: 6.99% | inhibition at 30 µM [1]: 98.8% | inhibition at 3 µM [2]: -15.8% | inhibition at 10 µM [2]: -24.8% | inhibition at 30 µM [2]: 46.2%
